Measurements: article PMC10108821, “Three tyrosine kinase inhibitors cause cardiotoxicity by inducing endoplasmic reticulum stress and inflammation in cardiomyocytes” (BMC Medicine, 2023)

Experiments:
NRCMs [1] = tested on: NRCMs
Experimental: After treatment, cells were stained with 5 μg/mL Propidium iodide (Sigma-Aldrich) mixed with Hoechst33342 (Solarbio) in Phenol red-free DMEM (Procell) in a 5% CO2 incubator at 37°C for 30 minutes. Images of PI staining were acquired through the filter Ex/Em=555/624nm and of the nuclei staining through the filter Ex/Em=405/452 using ImageXpress Micro Confocal-AWES (Molecular Devices).

H9C2 cell line = experiment: qRT-PCR of inflammatory genes in H9C2 cells; type: cell-based, rat; settings: ISRIB 200 nM or salubrinal 20 μM with 3 TKIs, 24-hr
Experimental: (§1) RNA was isolated based on a standard protocol using TRIzol reagent (Vazyme). TRIzol (1ml per 1 well of a 6-well plate) was used to lyse cells and chloroform was added for RNA separation. Samples were shaked vigorously by hand for 15 seconds and incubated at room temperature for 2-3 minutes. RNA was present in the aqueous phase after centrifuge at 12000 x g for 15 minutes. Isopropyl alcohol was mixed to precipitate RNA from the aqueous phase. RNA precipitations were washed with 75% ethanol once and re-dissolved in RNase-free water. 1 μg total RNA was used for cDNA synthesis using a reverse transcription kit (Bioman). We then measured expression of genes of interest with SYBRR Green qPCR Mix (Bioman) using Applied Biosystems 7500 Quantitative PCR Instrument. Gene expression was normalized to the 18S ribosomal RNA expression and primers were listed in Primers Table.
H9C2 cells were a gift from Dr. Rong Qi in Peking University Health Science Center (they were originally purchased from the Cell Bank/Stem cell bank, Chinese Academy of Science). […] Media was changed to DMEM (Gibco) containing 2% FBS 12 hours before treatment. All treatments were performed under DMEM containing 2% FBS.

NRCMs [2] = experiment: qRT-PCR of fetal, pro-inflammatory and ER stress genes with pathway-selective inhibitors; type: cell-based, rat; settings: 24 h
Experimental: (§2) Rats were euthanized by decapitation and thoracic cavity was opened with scissors and hearts were popped out of the opening gently with fingers. Hearts were clipped and put in HBSS immediately; 20–40 hearts were collected into one sterile vial containing a magnetic stir bar and 1 mL digestive media made of 0.1% trypsin (Macklin) and 0.05% collagenase (Gibco) in HBSS. Hearts were minced until they were uniform in size. Digestive media was added to 10 mL for 40 hearts and stirred gently for 6 min. Supernatant was discarded and the digestion was repeated once; 10 mL digestive media was added and stirred gently for 10 min. The supernatant with cells were collected and the digestion and collection were repeated 4 times. Cells were centrifuged at 1200 rpm for 5 min, resuspended in media (Dulbecco’s modified Eagleʼs medium (Gibco)) with 10% fetal bovine serum (FBS; VISTECH), 1% penicillin–streptomycin, and 1% 0.1 M 5-bromo-2-deoxyuridine solution (Shanghai Yuanye) and filtered through a 40-μm cell strainer. Cells were seeded on a 100-mm plastic dish and cultured in a 5% CO2 incubator at 37 °C for 2 h to allow non-myocytes to adhere to the plate. The dish was swirled and media gently pipetted up and down to detach lightly attached cardiomyocytes. The collected myocytes were seeded in the same media described before; 48 h after plating, medium was exchanged to fresh DMEM (Gibco) with or without 2% FBS. All drug treatments were performed after this media change.
as §1

NRCMs [3] = experiment: Mitochondrial membrane potential by TMRE staining; type: cell-based, rat; settings: 24 h of treatment
[4] = FDA adverse event reporting system (FAERS) analysis, reporting odds ratios; settings: July 2014 to December 2020
NRCMs [5] = experiment: Seahorse assay: oxygen consumption and extracellular acidification; type: cell-based, rat; settings: 24 h; fixed doses: 10 µM, crizotinib and ponatinib 3.16 µM
Experimental: as §2
NRCMs were seeded evenly into the Seahorse XF96 cell culture plates (Agilent) and cultured in DMEM high glucose with 2% FBS. About 2 hours before the test, cells were moved to a non-CO2 incubator at 37 ° C and incubated for 1 hour. 1 hour prior to the test, culture media was replaced with the Seahorse Basal DMEM at 37°C (with appropriate concentration of glucose, 4mM L-glutamine, 1 mM sodium pyruvate and 1% penicillin-streptomycin solution) and incubated in a non-CO2 incubator at 37°C for 1 hour. Drugs were prepared at 8x to 10x concentrations with the corresponding seahorse media as in each well and added into ports of Seahorse XF96 cartridge plates which have been hydrated overnight. XFe96 Extracellular Flux Analyzer (Agilent) was used to measure oxygen consumption rate and extracellular acidification rate of cells with different drug treatments.

NRCMs [6] = experiment: Calcium staining with Calbryte 520 AM; type: cell-based, rat; settings: 0.5 and 1 h; 10 µM afatinib, 10 µM sorafenib, 5.62 µM ponatinib
ER stress genes in NRCMs = experiment: qRT-PCR of ER stress genes in NRCMs; type: cell-based, rat
Experimental: as §2, with “The collected myocytes were seeded in the same media described before; 48 h after plating, medium was exchanged to fresh DMEM (Gibco) with or without 2% FBS.” left out
as §1, with “RNA precipitations were washed with 75% ethanol once and re-dissolved in RNase-free water.” left out

patients = settings: cited from earlier work
Cor.4U hiPSC-CMs [7] = experiment: ATP level (CellTiter-Glo) in hiPSC-CMs; type: cell-based, human
Experimental: ATP content was measured using the CellTiter-Glo Luminescent Cell Viability Assay (Promega) following the manufacturer’s protocol. After adding CellTiter-Glo reagents and incubation, luminescence was quantified using a Synergy H1 plate reader (BioTek Instruments). ATP standards were prepared from 0.01 to 5 μM. For each drug, we fitted a four-parameter log-logistic model to calculate ED50 at day 5 (Fig S1). To rank the cellular toxicity of the eight TKIs (Fig 1T), we calculated (EC50-Cmax)/(EC50+Cmax) and arranged from the smallest to the biggest for increasing cellular toxicity.

HELP hiPSC-CMs = experiment: CardioExcyte 96 microelectrode array: base impedance and extracellular field potential; type: cell-based, human; settings: fixed doses: 10 µM, crizotinib and ponatinib 3.16 µM; up to 24 h
Experimental: HELP hiPSC-CMs were seeded evenly into the 96-well microelectrode array, NSP-96 0.6mm sensor plate (Nanion technologies), at 50,000 cells per well. Measurements were started after 3-5 days of culture of these cells and until the impedance and the extracellular field potential are stable. Measurements were taken a few times before drug addition, and every 30~60 minutes after the drugs were added at 2x concentration. Values were averaged from 3 wells per group. Beat rate, amplitude of impedance, base impedance and FPDc were calculated by the Cardio Excyte Control 96 software package (Nanion Technologies).

Sprague-Dawley rats = experiment: Rat gavage cardiotoxicity model: survival, heart and body weight
rat left ventricles = experiment: Rat gavage cardiotoxicity model: qRT-PCR in left ventricles; type: in vivo
Cor.4U hiPSC-CMs [8] = experiment: 3'DGE-UMI RNAseq transcriptome of hiPSC-CMs
[9] = tested on: Phospho-eIF2α, XBP1s, ATF6 (cleaved); experiment: Western blot of ER stress effectors in NRCMs; type: cell-based, rat
[10] = high PC1 loadings, ponatinib at high dose

O=C(COc1ccc(Cl)cc1)NC1CCC(NC(=O)COc2ccc(Cl)cc2)CC1 (centres unmarked) [ISRIB]
rescue from cell death induced by sorafenib (NRCMs [1]; ISRIB 200 nM or 4μ8c 10 μM with 10 µM sorafenib, 24-hr): had no such effect | expression of inflammatory genes induced by TKIs (H9C2 cell line): blocked upregulation of inflammatory genes (Nfkb1, Il6. and Tnf) by TKIs | expression of Txnip, Il1b, Tnf, Nfkb1 and Il6 induced by TKIs (NRCMs [2]; ISRIB 200 nM co-treatment): inhibited the expression of Txnip, Il1b, and Tnf to similar degrees as 4μ8c, but did not hamper the expression of Nfkb1 and Il6 as potently as 4μ8c in combination with ponatinib | expression of cardiac fetal genes induced by TKIs (NRCMs [2]; ISRIB 200 nM co-treatment): inhibited the expression of cardiac fetal genes to a similar level as 4μ8c | effect on Atf4, Ddit3, Xbp1s and Dnajb9 expression induced by TKIs (NRCMs [2]; ISRIB 200 nM or 4μ8c 10 μM with TKIs): inhibited Atf4 and Ddit3 significantly without affecting the XBP1s axis too much

Cc1ccc(C(=O)Nc2ccc(CN3CCN(C)CC3)c(C(F)(F)F)c2)cc1C#Cc1cnc2cccnn12 [ponatinib]
mitochondrial membrane potential (NRCMs [3]): trend of decreasing mitochondrial membrane potentials | cardiotoxicity events in FAERS, reporting odds ratios (RORs) [4]: caused the most cardiotoxicity with significant reporting odds ratios (RORs) | basal oxygen consumption rate (OCR) (NRCMs [5]): trend of inhibiting basal oxygen consumption rate (OCR) | maximal, spare and non-mitochondrial oxygen consumption (NRCMs [5]): inhibited maximal, spare, and non-mitochondrial oxygen consumption significantly | cell death (NRCMs [1]; 24-h treatment, 10 µM afatinib, 10 µM sorafenib, 5.62 µM ponatinib): very little cell death | cytosolic calcium concentration (NRCMs [6]): did not cause any significant changes in calcium concentration | expression of Dnajb9 (ER stress genes in NRCMs; 24 h): most robust upregulation of Dnajb9 among the 3 TKIs | expression of Herpud1 (ER stress genes in NRCMs; 24 h): most induced | temporal activation of ER stress genes, 72 versus 24 h (ER stress genes in NRCMs; afatinib 5.62 µM, sorafenib 3.16 μM, ponatinib 1.78 μM): the ATF4 and the ATF6 axes, but not XBP1s, showed time-dependent upregulation | relative activation of the three UPR branches (ER stress genes in NRCMs; high-dose treatment, 24 h): induced activation of three axes to similar degrees | incidence of arterial occlusion events (patients): 26% | level of cardiotoxicity based on literature reports (patients; ref Table S1, 2, 4, 26–36): high-levels of cardiotoxicity | effect on ATP levels (Cor.4U hiPSC-CMs [7]; 0.32 to 10 µM, day 1 to day 5): dose-dependent and time-dependent reduction in ATP levels | dose-dependent toxicity (ATP fold changes) (Cor.4U hiPSC-CMs [7]; day 1, different doses, RNAseq conditions): dose-dependent toxicity | effect on beat rate, contraction, base impedance and corrected field potential duration (HELP hiPSC-CMs): reduced beat rate and corrected field potential duration | death of animals (Sprague-Dawley rats; 15 mg/kg gavage once daily, 3 or 7 days): one rat died | heart or body weight (Sprague-Dawley rats; day 7, ponatinib 15 mg/kg, sorafenib 50 mg/kg gavage once daily): decreased | Dnajb9 expression (rat left ventricles; day 7, 15 mg/kg): significantly increased | gene expression of Anp (rat left ventricles; ponatinib 15 mg/kg, sorafenib 50 mg/kg gavage, 3 or 7 days): significant increase | expression of tRNA aminoacylation gene markers (SARS, GARS) (Cor.4U hiPSC-CMs [8]; Cluster 3): increased | expression of genes associated with heart contraction (Cor.4U hiPSC-CMs [8]; Cluster 4, day 3 or day 5): upregulated | expression of genes associated with ER stress (ATF4, NUPR1, DDIT3, TRIB3, CHAC1, SESN2, HERPUD1) (Cor.4U hiPSC-CMs [8]; [10]): upregulated | expression of genes related to cardiomyopathy and sarcomeric structure (MYH7, SYNPO2L, LDB3, ACTN2, MYLK3) (Cor.4U hiPSC-CMs [8]; [10]): downregulated | duration of activated eIF2α phosphorylation [9]: 24 h
